Common to all, as to assay type: cell-based, human
One assay relates to isolated neutrophils. The assay is described as follows: Glutamate biosensor recording of PMA-stimulated glutamate release, glutamate antagonist experiment (FIG. 1E). The method, then: Neutrophil preparation from 15 ml of whole blood was achieved by first adding 30 ml PBS under sterile conditions. Half of the PBS/Blood mix was carefully layered on a 15 ml layer of Ficoll-Paque Plus solution in two separate 50 ml falcons using an electronic pipette. The sample was then centrifuged at 1400 rpm at room temp for 30 minutes. 15 ml of sterile blood lysis buffer was added to the pellet centrifuged at 1200 rpm, undergoing 2 lysis cycles. The remaining pellet was washed with sterile PBS, resuspended in 10 ml PBS and the cells were counted. 10 mmol/L of glucose (plasma concentration) was then added in the sample. […]
The sensors were calibrated after every run with stock solutions: 20 μM (in neutrophils) or 40 μM (in blood) of glutamate, <<insert for lactate>> 1 μM (in neutrophils) or 10 μM (in blood) of D-Serine, 10 μM (in neutrophils) or (13.3 μM) of ATP and 0.748 μM adenosine in blood only. To convert changes in the sensor current to changes in the analyte concentrations, the midpoint of the calibration signal at the end of each run and the midpoint of the peak of the net responses (measured from the extrapolated baseline) were used. […]
This experiment was carried out using isolated neutrophils or whole blood from a patient. […] A null sensor measured non-specific release of oxygen reactive species. […]

For assay [1], the system named is heparinised whole blood. The assay is described as follows: D-serine biosensor recording of D-serine release in whole blood. To be noted: 1 ml heparinised whole blood, 37° C.; FIG. 3. The method, then:
(§1) The ATP sensors comprised two enzymes, glycerol kinase and glycerol-3-phosphate Oxidase, the adenosine sensor comprised of three enzymes, adenosine deaminase, nucleoside phosphorylase, and xanthine oxidase while the glutamate sensor contained glutamate oxidase. The D-Serine sensor contained D-amino acid oxidase. The ATP sensor had to be stored in 1M glycerol solution for 30 min to be able to operate.
(§2) 1.5 ml of the prepared sample (whole blood or isolated neutrophils in PBS/glucose) was pipetted into the temperature controlled chamber with a micro-magnetic stirrer for 5 minutes before the sensors were inserted. The sensors were held on a stereotaxic micro-manipulator with the entire sensing tip inserted in the sample, ensuring maximum analyte detection probability. Recordings were done with either all sensors simultaneously or with various combinations according to the sensor availability and aim of the experiment. […] After any detected response signal levelled off, the calibrations were carried out. […]
Samples of whole blood from human patients were analysed using the Sarissagold D-Serine sensor.
(§3) PMA was added to 1 ml heparinised whole blood maintained at 37° C. […] A null sensor measured non-specific release of oxygen reactive species. […]

Assay [2] deals with heparinised whole blood. Put plainly: Glutamate biosensor recording of glutamate release in stimulated whole blood.
Experimental: Recordings were carried out in a custom made chamber (1.7 ml maximum volume) and the temperature of the chamber was controlled by a Circulator C-85D. The sensors were connected to a Due-Stat ME200+ potentiostat (Sycopel International Ltd, Jarrow, UK) which was then connected to a Power 1401 interface for processing of the signal. The operating potential for Sarissaprobes was +600 mV and −50 mV for Sarissagold sensors (switched to +600 m V when not operating). The recordings were analysed by Spike2 software.
Blood was collected from patients or from healthy volunteers and stored in heparinised vials (local ethics approved). The samples were kept on ice and were tested within 1 h of collection. […]
Unless stated otherwise, samples of whole blood from human patients were analysed using the Sarissaprobes and Sarissagold glutamate sensors. […]
Assay [3] has as its system heparinised whole blood. Put plainly: Acetylcholine biosensor recording of acetylcholine release in whole blood. The settings on record: 1 ml heparinised whole blood, 37° C.; FIG. 4. The method, then: 1.5 ml of the prepared sample (whole blood or isolated neutrophils in PBS/glucose) was pipetted into the temperature controlled chamber with a micro-magnetic stirrer for 5 minutes before the sensors were inserted. The sensors were held on a stereotaxic micro-manipulator with the entire sensing tip inserted in the sample, ensuring maximum analyte detection probability. Recordings were done with either all sensors simultaneously or with various combinations according to the sensor availability and aim of the experiment. Once a steady-state baseline was achieved, 100 nM of PMA or opsonised E. coli were added to the chamber, avoiding contact with the sensors to limit the noise interference. After any detected response signal levelled off, the calibrations were carried out. A control run was always carried out for each experiment where only PMA/E. coli was applied followed by a calibration. The chamber and the sensors were rinsed with PBS or distilled water before every run.
Samples of whole blood from human patients were analysed using the Sarissagold acetylcholine sensor.
PMA was added to 1 ml heparinised whole blood maintained at 37° C. (as indicated by PMA in FIG. 4). A null sensor measured non-specific release of oxygen reactive species. The accetylcholine sensor detects acetylcholine release in real time. The tips of the sensors were 2 mm under the surface of the blood. […]

Assay [4] has as its system heparinised whole blood. Put plainly: ATP biosensor recording of ATP release in whole blood. The settings on record: 1 ml heparinised whole blood, 37° C.; FIG. 2. As for the experimental part: as §1, §2
Samples of whole blood from human patients were analysed using the Sarissagold ATP sensor.
as §3

Take `Cc1ccc(CC2(O)CCN(CCOc3ccc(O)cc3)CC2)cc1` [CO101244]: the “PMA-stimulated glutamate release in the presence of the antagonist” value in the assay on isolated neutrophils (isolated neutrophils, antagonist 100 μM added 1 minute before PMA) was “failed to increase glutamate release”.
As to `CCCCCCCCCCCCCC(=O)O[C@@H]1[C@@H](C)[C@@]2(O)[C@@H](C=C(CO)C[C@]3(O)C(=O)C(C)=C[C@@H]23)[C@@H]2C(C)(C)[C@]12OC(C)=O` [PMA, phorbol myristate acetate], in the assay with isolated neutrophils (PMA added to 1 ml heparinised whole blood (so in the source), no antagonist), the release of glutamate is roughly 15 μm. Also, the “response recorded using the D-serine sensor after addition of the stimulus” value in the assay on heparinised whole blood [1] is “led to an increase in the response”. In addition, the “response recorded using the glutamate sensor after addition of the stimulus” value with heparinised whole blood [2] (1 ml heparinised whole blood, 37° C., FIG. 1A/1B) is recorded as “led to an increase in the response”. For the same molecule, in the assay with heparinised whole blood [2] (PMA added 5 minutes after opsonised E. coli, FIG. 1C), the “glutamate release on subsequent stimulation” value is recorded as “failed to increase glutamate release”. Further, in the assay with heparinised whole blood [3], the “response recorded using the acetylcholine sensor after addition of the stimulus” value is “led to an increase in the response”. Also, the “response recorded using the ATP sensor after addition of the stimulus” value with heparinised whole blood [4] is recorded as “led to an increase in the response”.

The values above are taken from patent US12449415B2, “Diagnostics” (Queen Mary University of London, priority 2014, dated 2025).
